Earlier results, collected in patent publication US12633379B2, “Visible neural network framework” (priority 2020, dated 2026).

System: 39 human cancer cell lines
[1] = across the majority of cell lines tested in DeepSynergy, partners in FIG. 5F: MK2206, PD325901

SMILES: COc1cc([C@@H]2c3cc4c(cc3[C@@H](O[C@@H]3O[C@@H]5CO[C@@H](C)O[C@H]5[C@H](O)[C@H]3O)[C@H]3COC(=O)[C@H]23)OCO4)cc(OC)c1O [etoposide]
- Loewe synergy in combination with AKT inhibition [1]: synergized strongly
- Loewe synergy in combination with MEK inhibition [1]: synergized strongly
- Loewe synergy in combination with bortezomib (combined with the proteasome inhibitor bortezomib, DeepSynergy cell line panel, FIG. 12A, FIG. 5F): did not synergize
